Strand notation (5' to 3'): a small letter for the sugar, then the base; units joined by * are phosphorothioate-linked, units joined directly phosphodiester-linked; [ ] holds rarer units or linkages, { } end groups; capitals alone tell only the bases. e = 2'-O-(2-methoxyethyl) (MOE); [5mC] = 5-methylcytosine; d = 2'-deoxy (DNA)
Test system: human Factor 11 mRNA
Assay: Antisense inhibition of human Factor 11 in HepG2 cells by microwalk gapmers, lipofectin, 75 nM (Example 3)
Type: cell-based
Procedure: These gapmers were designed by creating gapmers shifted slightly upstream and downstream (i.e. “microwalk”) of the original gapmers from Table 3. Gapmers were also created with various motifs, e.g. 5-10-5 MOE, 3-14-3 MOE, and 2-13-5 MOE. These gapmers were tested in vitro. Cultured HepG2 cells at a density of 10,000 cells per well were transfected using lipofectin reagent with 75 nM antisense oligonucleotide. After a treatment period of approximately 24 hours, RNA was isolated from the cells and Factor 11 mRNA levels were measured by quantitative real-time PCR. Factor 11 mRNA levels were adjusted according to total RNA content, as measured by RIBOGREEN. Results are presented as percent inhibition of Factor 11, relative to untreated control cells.
The chimeric antisense oligonucleotides in Table 4 were designed as 5-10-5 MOE, 3-14-3 MOE, and 2-13-5 MOE gapmers. The first listed gapmers in Table 4 are the original gapmers (see Table 3) from which the remaining gapmers were designed via microwalk and are designated by an asterisk. The 5-10-5 gapmers are 20 nucleotides in length, wherein the central gap segment is comprised of 10 2′-deoxynucleotides and is flanked on both sides (in the 5′ and 3′ directions) by wings comprising 5 nucleotides each. The 3-14-3 gapmers are 20 nucleotides in length, wherein the central gap segment is comprised of 14 2′-deoxynucleotides and is flanked on both sides (in the 5′ and 3′ directions) by wings comprising 3 nucleotides each. The 2-13-5 gapmers are 20 nucleotides in length, wherein the central gap segment is comprised of 13 2′-deoxynucleotides. The central gap is flanked on the 5′ end with a wing comprising 2 nucleotides and on the 3′ end with a wing comprising 5 nucleotides. For each of the motifs (5-10-5, 3-14-3, and 2-13-5), each nucleotide in the 5′ wing segment and each nucleotide in the 3′ wing segment has a 2′-MOE modification. The internucleoside linkages throughout each gapmer are phosphorothioate (P=S) linkages. All cytidine residues throughout each gapmer are 5-methyl cytidines. “Target start site” indicates the 5′-most nucleotide to which the gapmer is targeted. “Target stop site” indicates the 3′-most nucleotide to which the gapmer is targeted. Each gapmer listed in Table 4 is targeted to SEQ ID NO: 1 (GENBANK Accession No. NM_000128.3).

[1] = HepG2, lipofectin, ~24 h, gapmers targeted to nucleobases 656 to 704 of SEQ ID NO: 1
[2] = HepG2 cells, lipofectin, gapmers targeted to nucleobases 738 to 762 of SEQ ID NO: 1
[3] = HepG2 cells, lipofectin, gapmers targeted to nucleobases 1018 to 1042 of SEQ ID NO: 1
[4] = HepG2 cells, lipofectin, gapmers targeted to nucleobases 1062 to 1091 of SEQ ID NO: 1

Substance | % inhibition [1] [%] | also measured
416870 (antisense eT*eA*eA*dA*dT*dG*dT*d[5mC]*dT*dT*dT*dG*dT*dT*dG*d[5mC]*dA*eA*eG*e[5mC]) [compound 416870] | 76 | 
416871 (antisense eA*eT*eA*dA*dA*dT*dG*dT*d[5mC]*dT*dT*dT*dG*dT*dT*dG*d[5mC]*eA*eA*eG) [compound 416871] | 28 | 
416872 (antisense e[5mC]*eA*eT*dA*dA*dA*dT*dG*dT*d[5mC]*dT*dT*dT*dG*dT*dT*dG*e[5mC]*eA*eA) [compound 416872] | 20 | 
416873 (antisense eA*e[5mC]*eA*dT*dA*dA*dA*dT*dG*dT*d[5mC]*dT*dT*dT*dG*dT*dT*eG*e[5mC]*eA) [compound 416873] | 51 | 
416874 (antisense e[5mC]*eA*e[5mC]*dA*dT*dA*dA*dA*dT*dG*dT*d[5mC]*dT*dT*dT*dG*dT*eT*eG*e[5mC]) [compound 416874] | 49 | 
416875 (antisense e[5mC]*e[5mC]*eA*d[5mC]*dA*dT*dA*dA*dA*dT*dG*dT*d[5mC]*dT*dT*dT*dG*eT*eT*eG) [compound 416875] | 75 | 
416876 (antisense eT*e[5mC]*e[5mC]*dA*d[5mC]*dA*dT*dA*dA*dA*dT*dG*dT*d[5mC]*dT*dT*dT*eG*eT*eT) [compound 416876] | 37 | 
416877 (antisense eG*eT*e[5mC]*d[5mC]*dA*d[5mC]*dA*dT*dA*dA*dA*dT*dG*dT*d[5mC]*dT*dT*eT*eG*eT) [compound 416877] | 51 | 
416879 (antisense eA*eG*eG*dT*d[5mC]*d[5mC]*dA*d[5mC]*dA*dT*dA*dA*dA*dT*dG*dT*d[5mC]*eT*eT*eT) [compound 416879] | 92 | 
416880 (antisense eT*eA*eG*dG*dT*d[5mC]*d[5mC]*dA*d[5mC]*dA*dT*dA*dA*dA*dT*dG*dT*e[5mC]*eT*eT) [compound 416880] | 66 | 
416881 (antisense e[5mC]*eT*eA*dG*dG*dT*d[5mC]*d[5mC]*dA*d[5mC]*dA*dT*dA*dA*dA*dT*dG*eT*e[5mC]*eT) [compound 416881] | 81 | 
416882 (antisense eT*e[5mC]*eT*dA*dG*dG*dT*d[5mC]*d[5mC]*dA*d[5mC]*dA*dT*dA*dA*dA*dT*eG*eT*e[5mC]) [compound 416882] | 60 | 
416883 (antisense eG*eT*e[5mC]*dT*dA*dG*dG*dT*d[5mC]*d[5mC]*dA*d[5mC]*dA*dT*dA*dA*dA*eT*eG*eT) [compound 416883] | 82 | 
416884 (antisense eT*eG*eT*d[5mC]*dT*dA*dG*dG*dT*d[5mC]*d[5mC]*dA*d[5mC]*dA*dT*dA*dA*eA*eT*eG) [compound 416884] | 69 | 
416885 (antisense eA*eT*eG*dT*d[5mC]*dT*dA*dG*dG*dT*d[5mC]*d[5mC]*dA*d[5mC]*dA*dT*dA*eA*eA*eT) [compound 416885] | 67 | 
416886 (antisense e[5mC]*eA*eT*dG*dT*d[5mC]*dT*dA*dG*dG*dT*d[5mC]*d[5mC]*dA*d[5mC]*dA*dT*eA*eA*eA) [compound 416886] | 74 | 
416888 (antisense eT*eT*e[5mC]*dA*dT*dG*dT*d[5mC]*dT*dA*dG*dG*dT*d[5mC]*d[5mC]*dA*d[5mC]*eA*eT*eA) [compound 416888] | 76 | 
416889 (antisense e[5mC]*eT*eT*d[5mC]*dA*dT*dG*dT*d[5mC]*dT*dA*dG*dG*dT*d[5mC]*d[5mC]*dA*e[5mC]*eA*eT) [compound 416889] | 60 | 
416890 (antisense e[5mC]*e[5mC]*eT*dT*d[5mC]*dA*dT*dG*dT*d[5mC]*dT*dA*dG*dG*dT*d[5mC]*d[5mC]*eA*e[5mC]*eA) [compound 416890] | 87 | 
416891 (antisense e[5mC]*e[5mC]*e[5mC]*dT*dT*d[5mC]*dA*dT*dG*dT*d[5mC]*dT*dA*dG*dG*dT*d[5mC]*e[5mC]*eA*e[5mC]) [compound 416891] | 81 | 

Substance | % inhibition [1] [%] | also measured
416893 (antisense eT*eG*e[5mC]*d[5mC]*d[5mC]*dT*dT*d[5mC]*dA*dT*dG*dT*d[5mC]*dT*dA*dG*dG*eT*e[5mC]*e[5mC]) [compound 416893] | 90 | 
416894 (antisense eA*eT*eG*d[5mC]*d[5mC]*d[5mC]*dT*dT*d[5mC]*dA*dT*dG*dT*d[5mC]*dT*dA*dG*eG*eT*e[5mC]) [compound 416894] | 85 | 
416897 (antisense eT*eT*eT*dA*dT*dG*d[5mC]*d[5mC]*d[5mC]*dT*dT*d[5mC]*dA*dT*dG*dT*d[5mC]*eT*eA*eG) [compound 416897] | 66 | 
416898 (antisense e[5mC]*e[5mC]*eG*dT*dG*d[5mC]*dA*dT*d[5mC]*dT*dT*dT*d[5mC]*dT*dT*dG*dG*e[5mC]*eA*eT) [compound 416898] |  | % inhibition [2]: 88%
416899 (antisense eT*e[5mC]*e[5mC]*dG*dT*dG*d[5mC]*dA*dT*d[5mC]*dT*dT*dT*d[5mC]*dT*dT*dG*eG*e[5mC]*eA) [compound 416899] |  | % inhibition [2]: 86%
416900 (antisense eA*eT*e[5mC]*d[5mC]*dG*dT*dG*d[5mC]*dA*dT*d[5mC]*dT*dT*dT*d[5mC]*dT*dT*eG*eG*e[5mC]) [compound 416900] |  | % inhibition [2]: 90%
416901 (antisense e[5mC]*eA*eT*d[5mC]*d[5mC]*dG*dT*dG*d[5mC]*dA*dT*d[5mC]*dT*dT*dT*d[5mC]*dT*eT*eG*eG) [compound 416901] |  | % inhibition [2]: 65%
416902 (antisense eT*e[5mC]*eA*dT*d[5mC]*d[5mC]*dG*dT*dG*d[5mC]*dA*dT*d[5mC]*dT*dT*dT*d[5mC]*eT*eT*eG) [compound 416902] |  | % inhibition [2]: 46%
416903 (antisense eG*eT*e[5mC]*dA*dT*d[5mC]*d[5mC]*dG*dT*dG*d[5mC]*dA*dT*d[5mC]*dT*dT*dT*e[5mC]*eT*eT) [compound 416903] |  | % inhibition [2]: 88%
416904 (antisense e[5mC]*e[5mC]*eG*dG*dG*dA*dT*dG*dA*dT*dG*dA*dG*dT*dG*d[5mC]*dA*eG*eA*eT) [compound 416904] |  | % inhibition [3]: 90%
416905 (antisense eA*e[5mC]*e[5mC]*dG*dG*dG*dA*dT*dG*dA*dT*dG*dA*dG*dT*dG*d[5mC]*eA*eG*eA) [compound 416905] |  | % inhibition [3]: 85%
416906 (antisense eA*eA*e[5mC]*d[5mC]*dG*dG*dG*dA*dT*dG*dA*dT*dG*dA*dG*dT*dG*e[5mC]*eA*eG) [compound 416906] |  | % inhibition [3]: 88%
416907 (antisense e[5mC]*eA*eA*d[5mC]*d[5mC]*dG*dG*dG*dA*dT*dG*dA*dT*dG*dA*dG*dT*eG*e[5mC]*eA) [compound 416907] |  | % inhibition [3]: 90%
416909 (antisense eA*eT*eT*d[5mC]*dT*dT*dT*dG*dG*dG*d[5mC]*d[5mC]*dA*dT*dT*d[5mC]*d[5mC]*eT*eG*eG) [compound 416909] |  | % inhibition [4]: 78%
416910 (antisense eG*eA*eT*dT*d[5mC]*dT*dT*dT*dG*dG*dG*d[5mC]*d[5mC]*dA*dT*dT*d[5mC]*e[5mC]*eT*eG) [compound 416910] |  | % inhibition [4]: 90%
416911 (antisense eA*eG*eA*dT*dT*d[5mC]*dT*dT*dT*dG*dG*dG*d[5mC]*d[5mC]*dA*dT*dT*e[5mC]*e[5mC]*eT) [compound 416911] |  | % inhibition [4]: 90%
416912 (antisense eG*eA*eG*dA*dT*dT*d[5mC]*dT*dT*dT*dG*dG*dG*d[5mC]*d[5mC]*dA*dT*eT*e[5mC]*e[5mC]) [compound 416912] |  | % inhibition [4]: 92%
416913 (antisense eT*eG*eA*dG*dA*dT*dT*d[5mC]*dT*dT*dT*dG*dG*dG*d[5mC]*d[5mC]*dA*eT*eT*e[5mC]) [compound 416913] |  | % inhibition [4]: 93%
416914 (antisense eT*eT*eG*dA*dG*dA*dT*dT*d[5mC]*dT*dT*dT*dG*dG*dG*d[5mC]*d[5mC]*eA*eT*eT) [compound 416914] |  | % inhibition [4]: 87%
